Results on 1 substance are retold here after patent US8946299B2, “Use of calixarenes associated with an antibiotic in the treatment of bacterial infections” (Universite de Lorraine, priority 2011, dated 2015).

Format in all cases: cell-based
Experiment [1] relates to Pseudomonas aeruginosa strain ATCC 27853 (wild type). Briefly: Chessboard technique: MICs alone and synergism of Cx1 combinations. The settings on record: antibiotic used alone; second figure of the cell; n = 4. An excerpt: (§1) Three reference strains were used, corresponding to those studied for the MICs and MBCs (Minimum Bactericidal Concentration): Escherichia coli ATCC 25922, Staphylococcus aureus ATCC 29213, Pseudomonas aeruginosa ATCC 27853. For each of these strains 3 corresponding clinical isolates were chosen, having various antibiotic-resistance profiles, routinely used in standard fashion: • EcR1, EcR2, EcR3; • SaR1, SaR3, SaR4; • PaR2, PaR3, PaR5.
(§2) 1.3. Procedure: Chessboard Technique
(§3) The bacterial suspension is transferred to a 15 mL Falcon tube, centrifuged for 10 min at 4500 g, then the pellet is re-suspended in 1 mL of sterile distilled water. Suitable dilutions are then prepared in order to obtain a bacterial inoculum between 5·10^5 and 5·10^6 CFU/mL.
(§4) The MICs of the antibiotics were previously determined for each strain, by the method of microdilution in a liquid medium (CLSI (Clinical and Laboratory Standards Institute), 2003).
(§5) The same procedure is followed for the Cx1. […] Thus 64 ATB/Cx1 combinations are obtained.
(§6) The final volume contained in each of the wells must be 100 μL. Two controls must be present on each plate: • column 1 and 12: medium control • column 2 and 11: medium+bacteria control
(§7) Cx1: […] in the wells of […], starting with the lowest concentration.
(§8) ATB: 25 μL in the wells of rows H to A (columns 3 to 11), starting with the lowest concentration.
(§9) 50 μL in each of the wells of columns 2 to 11.
(§10) D2: Reading the Turbidity at 540 Nm.
(§11) The FIC (Fractional Inhibitory Concentration Index) value is determined by the following formula:
(§12) [formula] MICA in combination MICA alone MICB in combination MICB alone
(§13) When FIC≦0.5, there is a synergistic effect between antibiotic A and antibiotic B.
(§14) When 0.5<FIC≦1, there is an additive effect between antibiotic A and antibiotic B.
(§15) When 1<FIC≦4, there is an indifferent effect between antibiotic A and antibiotic B.
(§16) When FIC>4, there is an antagonistic effect between antibiotic A and antibiotic B.
(§17) For each strain and each antibiotic/Cx1 combination, the experiments were repeated a minimum of 3 times.

Experiment [2] relates to Pseudomonas aeruginosa strain having a resistance to β-lactams (including the carbapenems), aminoglycosides, the trimethoprim-sulphamethoxazole combination and …. The experiment is described as above. To be noted: antibiotic used alone; second figure of the cell; n = 4.
Source text: as §1, §2, §3, §4, §5, §6, §7, §8, §9, §10, §11, §12, §13, §14, §15, §16, §17

Experiment [3] deals with mucoid strain of Pseudomonas aeruginosa having a resistance to rifampicin and the trimethoprim-sulphamethoxazole combination (PaR5). Described as above. The settings on record: antibiotic used alone; second figure of the cell; n = 4.
Source text: as §1, §2, §3, §4, §5, §6, §7, §8, §9, §10, §11, §12, §13, §14, §15, §16, §17

Experiment [4] relates to Pseudomonas aeruginosa strain having a resistance to β-lactams, the trimethoprim-sulphamethoxazole combination and fosfomycin (PaR2). To be noted: antibiotic used alone; second figure of the cell; n = 4.
Source text: as §1, §2, §3, §4, §5, §6, §7, §8, §9, §10, §11, §12, §13, §14, §15, §16, §17

The test system of experiment [5] is EcR1: Penicillinase-Producing Escherichia coli without Associated Resistance. In words: Antibiogram by the disk diffusion technique. The procedure:
5. Identification and Antibiogram 5.1 EcR1: Penicillinase-Producing Escherichia coli without Associated Resistance
The bacterial and antibiogram identification is carried out by the VITEK 2 system (bioMérieux) and by the disk diffusion technique.
(In general: In agar diffusion tests the substance spreads into inoculated agar from a disc or well.)

The test system of experiment [6] is EcR3: ESBL-Producing Escherichia coli. In words: Antibiogram by the disk diffusion technique. The settings on record: Table C1; strain EcR3. The procedure: 5.3 EcR3: ESBL-Producing Escherichia coli with Associated Resistance to the Aminoglycosides, Rifampicin and the Trimethoprim-Sulphamethoxazole Combination
The bacterial and antibiogram identification is carried out by the VITEK 2 system (bioMérieux) and by the disk diffusion technique

The subject of experiment [7] is PaR2: Pseudomonas aeruginosa. To be noted: Table G1; strain PaR2. Here is the method: 5.7 PaR2: Pseudomonas aeruginosa Having an Associated Resistance to the β-Lactams, the Trimethoprim-Sulphamethoxazole Combination and Fosfomycin The bacterial and antibiogram identification is carried out by the VITEK 2 system (bioMérieux) and by the disk diffusion technique
For experiment [8], the system named is PaR5: Pseudomonas aeruginosa. In words: Antibiogram by the disk diffusion technique. Details: unit not given here. To be noted: Table I1; strain PaR5.

On to Colimycin, for which the “MIC (antibiotic)” value in experiment [1] was determined as 4 µg/mL; in experiment [2], 8 µg/mL; in experiment [3], 16 µg/mL; in experiment [4], 8 µg/mL. Also, in experiment [5] (Table A1, category from diameter vs Dmin Dmax), the “Results (diameter)” value was “Susceptible”. Further, the Diameter in experiment [5] (Table A1, disk diffusion) is given as 15; in experiment [6] it was 16; in experiment [7], 20; in experiment [8], 23. The same substance showed a diameter in mm in experiment [5] (Table A2, diameter) of 15 mm.
